Test [1] has as its target T1, His-His-USP7 (aa208-560, |C315A|) (Homo sapiens, UniProt Q93009, C315A).
T1 construct: His-His-USP7 (aa208-560, |C315A|); His-His (N)
Nature of the test: Evaluation of the inhibition of USP7 by the Fluorescence Intensity (FLINT) readings. It counts as biochemical. The settings on record: 0.25 nM His-His-USP7, compound incubated 60 minutes at 30° C., 500 nM Ubiquitin-Rhodamine-110 substrate; 50% reduction in kinetic rate. An outline of the steps: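 IC50 reflects 50% reduction in kinetic rate of rhodamine-110 release (Ex485/Em535, reads every 3 min over 21 min), normalised to DMSO and no-enzyme controls, from an 11-point 4-parameter fit. Substrate is 500 nM Ub-Rh110, added after 60 min, 30 °C preincubation of compound with 0.25 nM USP7 aa208–560 C315A. Buffer is Bicine pH 8.0 with 10% DMSO.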

Test [2] relates to Z138 mantle cell lymphoma tumour cell lines. Nature of the test: In vitro cytotoxicity, MTT assay. In kind it is cell-based. The settings on record: Z138 cells exposed to the test compounds for 96 hours, cell viability vs DMSO treated cells. The essentials: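 Z138 cells exposed to compounds for 96 hours, then MTT added for 4 hours. Viable cells quantified from formazan absorbance at 540 nm.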

The structures appear in SMILES notation.

T1 sequence (Q93009 208-560 C315A): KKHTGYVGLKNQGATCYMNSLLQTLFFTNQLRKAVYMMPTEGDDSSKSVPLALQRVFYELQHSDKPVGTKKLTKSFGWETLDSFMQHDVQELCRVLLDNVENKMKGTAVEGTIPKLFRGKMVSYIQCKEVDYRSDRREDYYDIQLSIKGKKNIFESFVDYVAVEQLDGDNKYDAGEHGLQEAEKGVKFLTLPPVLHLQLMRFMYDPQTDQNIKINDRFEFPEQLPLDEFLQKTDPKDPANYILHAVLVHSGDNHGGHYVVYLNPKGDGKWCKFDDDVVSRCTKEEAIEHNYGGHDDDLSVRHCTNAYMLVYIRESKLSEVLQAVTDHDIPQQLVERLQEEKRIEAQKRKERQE

Take `Nc1c(Oc2ccc(F)cc2)ncn(CC2(O)CCN(C(=O)[C@@H]3CC[C@](F)(C#Cc4nccnc4Cl)C[C@H]3c3ccccc3)CC2)c1=O` [Example 153, 5-amino-3-({1-[(1R,2R,4R)-4-[2-(3-chloropyrazin-2-yl)ethynyl]-4-fluoro-2-phenylcyclohexanecarbonyl]-4-hydroxypiperidin-4-yl}methyl)-6-(4-fluorophenoxy)-3,4-dihydropyrimidin-4-one]: the half-inhibitory concentration (IC50) (usually the concentration at which inhibition is half-maximal) in test [1] came to 37.1 nM; in test [2] (Homo sapiens, Z-138, 96 h), 0.0175 µM.

Turning to `COc1nccnc1C#C[C@@]1(F)CC[C@@H](C(=O)N2CCC(O)(Cn3cnc(Oc4ccc(F)cc4)c(N)c3=O)CC2)[C@H](c2ccccc2)C1` [Example 154, 5-amino-3-({1-[(1R,2R,4R)-4-fluoro-4-[2-(3-methoxypyrazin-2-yl)ethynyl]-2-phenylcyclohexanecarbonyl]-4-hydroxypiperidin-4-yl}methyl)-6-(4-fluorophenoxy)-3,4-dihydropyrimidin-4-one], the IC50 in test [1] is 24.7 nM; in test [2] (Homo sapiens, Z-138, 96 h), 0.016 µM.

Consider `CO[C@]1(C#Cc2cnccn2)CC[C@@H](C(=O)N2CCC(O)(Cn3cnc(Oc4ccc(F)cc4)c(N)c3=O)CC2)[C@H](c2ccccc2)C1` [Example 156, 5-amino-6-(4-fluorophenoxy)-3-({4-hydroxy-1-[(1R,2R,4R)-4-methoxy-2-phenyl-4-[2-(pyrazin-2-yl)ethynyl]cyclohexanecarbonyl]piperidin-4-yl}methyl)-3,4-dihydropyrimidin-4-one], for which the IC50 came out at 29.6 nM in test [1] and 0.00653 µM in test [2] (Homo sapiens, Z-138, 96 h).

Consider `Nc1c(Oc2ccc(F)cc2)ncn(CC2(O)CCN(C(=O)[C@@H]3CC[C@](F)(C#Cc4cc(F)ccn4)C[C@H]3c3ccccc3)CC2)c1=O` [Example 157, 5-amino-3-({1-[(1R,2R,4R)-4-fluoro-4-[2-(4-fluoropyridin-2-yl)ethynyl]-2-phenylcyclohexanecarbonyl]-4-hydroxypiperidin-4-yl}methyl)-6-(4-fluorophenoxy)-3,4-dihydropyrimidin-4-one], for which the concentration for half-maximal inhibition (IC50) in test [1] amounted to 6.77 nM; in test [2] (Homo sapiens, Z-138, 96 h), 0.00716 µM.

`CO[C@]1(C#Cc2nccn2C)CC[C@@H](C(=O)N2CCC(O)(Cn3cnc(Oc4ccc(F)cc4)c(N)c3=O)CC2)[C@H](c2ccccc2)C1` [Example 159, 5-amino-6-(4-fluorophenoxy)-3-[(4-hydroxy-1-{[(1R,2R,4R)-4-methoxy-4-[2-(1-methylimidazol-2-yl)ethynyl]-2-phenytcyclohexyl]carbonyl}piperidin-4-yl)methyl]pyrimidin-4-one]: the IC50 in test [1] is 28.2 nM; in test [2] (Homo sapiens, Z-138, 96 h), 0.0168 µM.

Regarding `Nc1cccc(C#C[C@@]2(F)CC[C@@H](C(=O)N3CCC(O)(Cn4cnc(Oc5ccc(F)cc5)c(N)c4=O)CC3)[C@H](c3ccccc3)C2)n1` [Example 161, 5-amino-3-[(1-{[(1R,2R,4R)-4-[2-(6-aminopyridin-2-yl)ethynyl]-4-fluoro-2-phenylcyclohexyl]carbonyl}-4-hydroxypiperidin-4-yl)methyl]-6-(4-fluurophenoxy)pyrimidin-4-one], the IC50 in test [1] is 29.4 nM; in test [2], 0.0126 µM.

On to `Cc1ccc(C#C[C@@]2(F)CC[C@@H](C(=O)N3CC[C@](O)(Cn4cnc(Oc5ccc(F)cc5)c(N)c4=O)C(F)(F)C3)[C@H](c3ccccc3)C2)nn1` [Example 162, 5-amino-3-[[(4S)-3,3-difluoro-1-[(1R,2R,4R)-4-fluoro-4-[2-(6-methylpyridazin-3-yl)ethynyl]-2-phenylcyclohexanecarbonyl]-4-hydroxypiperidin-4-yl]methyl]-6-(4-fluorophenoxy)-3,4-dihydropyrimidin-4-one], for which the IC50 in test [1] was 10 nM; in test [2] (Homo sapiens, Z-138, 96 h) it was 0.00647 µM.

With `Nc1cccc(C#C[C@@]2(F)CC[C@@H](C(=O)N3CC[C@](O)(Cn4cnc(Oc5ccc(F)cc5)c(N)c4=O)C(F)(F)C3)[C@H](c3ccccc3)C2)n1` [Example 163, 5-amino-3-{[(4S)-1-[(1R,2R,4R)-4-[2-(6-aminopyridin-2-yl)ethynyl]-4-fluoro-2-phenylcyclohexanecarbonyl]-3,3-difluoro-4-hydroxypiperidin-4-yl]methyl}-6-(4-fluorophenoxy)-3,4-dihydropyrimidin-4-one], the IC50 in test [1] is 52.4 nM; in test [2] (Homo sapiens, Z-138, 96 h), 0.0277 µM.

The values are drawn from patent publication US20210221785A1, “AMINO-PYRIMIDONYL DERIVATIVES, A PROCESS FOR THEIR PREPARATION AND PHARMACEUTICAL COMPOSITIONS CONTAINING THEM” (LES LABORATOIRES SERVIER, priority 2018, published 2021).
